{"source": "patent US10206900B2", "about": "“Treatments for fibrotic diseases” (MOR RESEARCH APPLICATIONS LTD., priority 2013, dated 2019)", "key": {"MMP-9": {"system": "MMP-9", "assay": "MMP-9 activity by gelatin zymography in RPE cell supernatants", "format": "cell-based", "settings": "RPE cells, SB431542 10 μM pretreatment, TGF-β1 2.5 ng/ml, 24 hours", "method": "FIGS. 2A-2C TAK1 regulates RPE cells EMT phenotype upon TGF-β stimulation. FIG. 2A: RPE cells were serum-starved for 16 hours, pretreated with 5Z-7-oxozeaenol (1 μM) or left untreated for 1 hour. The cells were then treated with TGF-β1 (2.5 ng/ml) as described herein for 24 h and immunostained with α-SMA antibodies (red) and DAPI (blue). Representative photographs of three independent experiments. The histogram in the bottom panel represents quantification of α-SMA antibody pixel intensity. FIG. 2B: RPE cells were serum-starved for 16 hours, then treated with mitomycin C (10 ng/ml) for 3 h. Thereafter, pretreated with 5Z-7-oxozeaenol (1 μM) or Dimethyl sulfoxide (DMSO) for 1 hour. Following this process a scratch was performed in the cell monolayer and the serum free medium was supplemented with TGF-β1 (2.5 ng/ml) or left unsupplemented. Scratches were photo-documented at the indicated times (top panel) and their width was measured using Image-J software. […] Bars are Mean±SD. FIG. 2C: RPE cells were serum-starved for 16 hours then pretreated with 5Z-7-oxozeaenol (1 μM) or SB431542 (10 μM), or DMSO for 1 hour. […] Total MMP-9 activities were processed by gelatin zymography (top panel) and the band intensity values were calculated by Quantity One® 1-D analysis software. […] Data is expressed as the Mean±SD."}, "RPE cells": {"system": "RPE cells", "assay": "Cell size / morphology (rhodamine-phalloidin staining) upon TGF-β1", "format": "cell-based", "settings": "5Z-7-oxozeaenol 1 μM or SB431542 10 μM prior to TGF-β1", "method": "FIG. 3A: RPE cells were plated on fibronectin-coated glass coverslips, serum-starved for 16 hours, pretreated with 5Z-7-oxozeaenol (1 μM) or SB431542 (10 μM), or DMSO for 1 hour, then treated with or without TGF-β1 for 2 days. Following treatment, the cells were stained with rhodamine-phalloidin (actin fibers-red) and DAPI (blue) and visualized by confocal microscopy. Scale bars: […]. FIG. 3B: Serum-starved RPE cells pretreated with 5Z-7-oxozeaenol (1 μM) or DMSO for 1 hour, and were exposed to TGF-β as in FIG. 3A. Total RNA was extracted at each time point and qPCR was performed. Transcription levels of CTGF were determined after 6 h, 16 h and 24 h. Bars represent the specific mRNA amount relative to GAPDH mRNA in the same samples. All experiments were performed in triplicates. A representative histogram from two independent experiments is shown. FIG. 3C: RPE cells were plated and treated as in FIG. 3A. Following treatment, the cells were immunostained with E-cadherin antibodies (green) and DAPI (blue). Representative photographs of two independent experiments are shown. In addition to the secretion of MMPs and increased migratory capacity, several morphological changes underlie EMT (Lamouille et al., I 2007, 178:437-451). […]"}}, "data": [{"smiles": "NC(=O)c1ccc(-c2nc(-c3ccc4c(c3)OCO4)c(-c3ccccn3)[nH]2)cc1", "note": "[SB431542]", "values": [{"measurement": "activation of MMP-9 by TGF-β1", "setting": "MMP-9", "value": "completely abolished the activation of MMP-9"}, {"measurement": "TGF-β1-induced increase in cell size (hypertrophic RPE cells)", "setting": "RPE cells", "value": "abolished the increase in cell size"}]}]}
